Experimental findings from patent US20220017541A1, “INHIBITORS OF ARGINASE” (Black Belt Tx Ltd, priority 2018, published 2022) are described below.

The target of experiment [1] is T1, recombinant human ARG1 (Homo sapiens, UniProt P05089).
T1 construct: purchased R&D System 5868-AR-010
T1 sequence (P05089 1-322): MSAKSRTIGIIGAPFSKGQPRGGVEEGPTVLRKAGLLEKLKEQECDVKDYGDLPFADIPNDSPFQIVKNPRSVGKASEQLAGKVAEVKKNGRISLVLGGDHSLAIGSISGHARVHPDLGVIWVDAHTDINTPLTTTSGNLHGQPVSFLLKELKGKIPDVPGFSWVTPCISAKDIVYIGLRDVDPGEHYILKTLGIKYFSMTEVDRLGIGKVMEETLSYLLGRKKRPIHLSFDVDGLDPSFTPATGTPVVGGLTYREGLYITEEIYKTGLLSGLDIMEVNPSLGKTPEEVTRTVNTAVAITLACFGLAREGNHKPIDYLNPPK
As to the kind of experiment: Arginase enzymatic assay in vitro, recombinant human ARG1 (colorimetric urea detection). Type of experiment: biochemical. The conditions noted are these: recombinant human arginase 1; read-out: IC50 Inh rhARG1. The source says: (§1) Arginase catalyzes the hydrolysis of L-arginine into L-ornithine and urea. Urea amount produced by this reaction can be detected using a colorimetric assay and used as an indirect measurement of arginase activity. An adapted protocol from (Baggio, R., et al., J Pharmacol Exp Ther, 1999. 290(3): p. 1409-16) was used for the testing the ability of exemplary compounds of the invention to inhibit arginase enzymes from a variety of sources including recombinant human ARG1 and 2, lysates of human red blood cells (RBC) and intact murine macrophages, as described below.
(§2) Compounds of the invention were prepared from powder as 10 mM stock solutions in DMSO and stored in presence of N2 neutral atmosphere at −80° C. For IC50 determination and just before the assay, exemplary compounds were successively diluted to get the following concentrations: 210, 70, 21, 7, 2.1, 0.7, 0.21, 0.07, 0.021, 0.007, 0.0021 and 0.0007 μM (i.e., final concentrations in the wells of 30, 10, 3, 1, 0.3, 0.1, 0.03, 0.01, 0.003, 0.001, 0.0003, 0.0001 μM).
(§3) Assays were run in clear flat bottom 96-well plates (Nunclon, Cat. No. #167008) adding in each well the following solutions in this order: (1) 10 μl of Tris-HCl solution supplemented with 0.1% bovine serum albumin (BSA) containing 1.563 μg/ml recombinant human ARG1 (R&D System, Cat. No. #5868-AR-010), (2) 30 μl of Tris-HCl buffer containing 10 mM MnCl2 and (3) 10 μL of a pre-dilution of each test article or DMSO (vehicle). Compounds were allowed to interact with the enzyme-cofactor complex pre-incubating the plate at 37° C. for 30 min. To start the reaction, 20 μl of 50 mM L-arginine (Sigma Aldrich Cat. #A5006-100G) were added to each well in exception of the blank reaction (see below). All reactions were allowed to happen for 1 h at 37° C. To detect the urea production, reactions were stopped by adding 200 μl of a mixture of reagent A (4 mM o-phthalaldehyde in 50 mM Boric Acid, 1 M Sulfuric Acid, 0.03% Brij-35 (w/v)) and reagent B (4 mM N-(1-naphthyl)ethylenediamine in 50 mM Boric Acid, 1 M Sulfuric Acid, 0.03% Brij-35 (w/v)) in equal proportion. Color product was developed for 1 h at room temperature (RT) protected from light and then absorbance at 520 nm was measured using a Multifunction Microplate Reader (Synergy 4, Bioteck). Blank reactions were carried out by adding the L-arginine substrate only after the addition of mixture A-B. All reactions were carried out in duplicates.
(§4) The inhibition of urea production was calculated subtracting the absorbance from the blank reaction (zero enzymatic urea production) to the absorbance from all reactions and it was expressed as the percentage of the absorbance from the reaction containing the test article with respect to the absorbance from vehicle reaction (maximum of urea production).

Experiment [2] concerns the target T2, recombinant human ARG2 (Homo sapiens, UniProt P78540).
T2 construct: purchased BPS Bioscience 71659
T2 sequence (P78540 23-354): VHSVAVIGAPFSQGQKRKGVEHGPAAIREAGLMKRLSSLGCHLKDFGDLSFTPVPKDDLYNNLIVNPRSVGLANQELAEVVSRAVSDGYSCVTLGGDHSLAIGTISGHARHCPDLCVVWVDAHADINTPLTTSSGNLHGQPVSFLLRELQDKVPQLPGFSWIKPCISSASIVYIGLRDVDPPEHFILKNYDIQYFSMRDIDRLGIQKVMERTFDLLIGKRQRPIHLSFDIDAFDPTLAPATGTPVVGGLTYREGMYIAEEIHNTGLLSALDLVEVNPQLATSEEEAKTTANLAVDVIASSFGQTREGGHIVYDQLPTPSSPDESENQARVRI
In words: Arginase enzymatic assay in vitro, recombinant human ARG2 (colorimetric urea detection). The experiment is classed as biochemical. The conditions noted are these: recombinant human arginase 2; read-out: IC50 Inh rhARG2.
Excerpt: as §1, §2, §3, §4
For testing inhibitory activity over recombinant human arginase II, 10 μl of Tris-HCl solution supplemented with 0.1% BSA containing 1.5 μg/ml recombinant human ARG2 (BPS Bioscience, Cat. No. #71659) was used instead of ARG1.

In experiment [3] the target is T3, arginase activity in intact BMM-M2 cells (Mus musculus, UniProt Q61176).
T3 construct: endogenous in cells; host or cells: bone-marrow derived macrophages from male C57BL/6 mice, polarised to M2 with IL-4
T3 sequence (Q61176 1-323): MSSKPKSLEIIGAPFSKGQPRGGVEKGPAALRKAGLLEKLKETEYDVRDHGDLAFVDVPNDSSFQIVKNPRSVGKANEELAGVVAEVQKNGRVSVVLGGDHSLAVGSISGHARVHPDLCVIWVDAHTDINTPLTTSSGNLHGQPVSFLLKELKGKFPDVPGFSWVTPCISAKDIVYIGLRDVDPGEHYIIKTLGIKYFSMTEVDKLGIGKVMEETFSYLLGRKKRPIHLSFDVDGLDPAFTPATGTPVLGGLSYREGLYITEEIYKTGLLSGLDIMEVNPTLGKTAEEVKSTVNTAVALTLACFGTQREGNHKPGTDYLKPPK
As to the kind of experiment: Cell-based arginase assay: urea production by cultured BMM-M2 cells. The conditions noted are these: 10 μM test compound, 24 h; for inhibition at 10 µM: read-out: Inh. urea production @10 μM (%). The protocol:
Murine bone-marrow derived macrophages (BMM) represent a convenient in vitro model that enables differentiation of these cells towards M1 or M2 macrophages. Briefly, male C57BL/6 mice 7-8 weeks old were euthanized by carbon dioxide asphyxiation. Femur and tibiae bones were removed under aseptic conditions and collected in a plate containing sterile ice-cold PBS 1×. After sterilization of bones in 70% ethanol during 1 min, bones were placed into a clean Petri dish containing fresh sterile ice-cold PBS 1×. The ends of each bone were cut and the marrow cavity was flushed using forceps and syringes filled with pre-warmed complete α-MEM growing medium (α-MEM without red phenol (Life Technologies, Cat. No. #41061-029) supplemented with 10% FBS, penicillin and streptomycin). Bone marrow (BM) cells were harvested in a 15 ml clean tube and centrifuged at 400 g for 8 min at RT. Supernatant was discarded and BM pellet was re-suspended in 5 ml Ammonium-Chloride-Potassium (ACK) buffer for 5 minutes at RT to lysis RBC. BM cell suspension was centrifuged at 400 g for 8 min at RT. Supernatant was discarded and BM cell pellet was re-suspended in complete α-MEM growing medium and passed through a 70 μm cell restrainer to eliminate solid contaminates and cellular aggregates. BM cells were seeded in 8 ml of complete α-MEM growing medium supplemented with 100 ng/ml recombinant mouse M-CSF (R&D Systems, Cat. No. #416-ML-050) in 100-mm dishes. BM cells were cultured overnight to get rid of contaminating stromal cells in a humidified incubator with 5% CO2 at 37° C. At the following day, non-adherent cells were collected in a clean 15-ml tube and centrifuged at 400 g for 8 min at RT. Cell pellet was re-suspended in complete α-MEM growing medium and counted using a hemocytometer Neubauer's chamber. Hematopoietic precursor cells were differentiated into BMM in presence of complete α-MEM growing medium supplemented 50 ng/ml M-CSF for 3 days. Finally to polarize BMM towards M2 phenotype, cells were incubated in presence 20 ng/ml of recombinant mouse IL-4 (R&D Systems, Cat. No. #404-ML-010) added to fresh complete α-MEM growing medium supplemented 50 ng/ml M-CSF for 24 h.
At the day of the experiment, BMM-M2 were treated for 24 h with vehicle (DMSO) or compounds of the invention at 1 and 10 μM prepared in fresh complete α-MEM growing medium supplemented 50 ng/ml M-CSF, 20 ng/ml IL-4 and 10 mM L-arginine (Cat. No. #A5006, Sigma Aldrich). At the next day, 70 μl aliquots of each treated culture media (supernatants) were transferred into a clear 96-well plate. Measurements of urea produced by BMM-M2 were performed using the adapted protocol detailed in Example B1. Wells without BMM-M2 containing only treatment media (vehicle) were used to determine the zero cell-derived urea production (blank). All treatments were carried out in triplicates.
The inhibition of urea production was calculated subtracting the absorbance from the blank to the absorbance from all treatments and it was expressed as the percentage of the absorbance from the reaction containing the test article treatment with respect to the absorbance from vehicle treatment (maximum of urea production).

As to `NC(CCCCB(O)O)(C(=O)O)C1CCN(C2CCCc3ccccc32)CC1` (single isomer, unassigned) [Compound 7, 2-amino-6-borono-2-(1-(1,2,3,4-tetrahydronaphthalen-1-yl)piperidin-4-yl)hexanoic acid], the IC50 in experiment [1] is less than 0.5 µM; in experiment [2], 0.5 to 5 µM.
On to `NC(CCCCB(O)O)(C(=O)O)C1CCN(C2CCCc3ccccc32)CC1` (single isomer, unassigned) [Compound 8, 2-amino-6-borono-2-(1-(1,2,3,4-tetrahydronaphthalen-1-yl)piperidin-4-yl)hexanoic acid], for which the IC50 in experiment [1] and in experiment [2] was less than 0.5 µM each time.
As to `NC(CCCCB(O)O)(C(=O)O)C1CCN(C2CCc3cc(F)c(F)cc32)CC1` (single isomer, unassigned) [Compound 19, 2-amino-6-borono-2-[1-(5,6-difluoroindan-1-yl)-4-piperidyl]hexanoic acid], the IC50 in experiment [1] and in experiment [2] was less than 0.5 µM throughout. For the same molecule, in experiment [3], the “Inh. urea production @10 μM (%)” value is given as “++ (25% < % inhibition < 15% at 10 μM test compound)”.
For `NC(CCCCB(O)O)(C(=O)O)C1CCN(C2Cc3ccccc3C2)CC1` (single isomer, unassigned) [Compound 24, 2-amino-6-borono-2-(1-(2,3-dihydro-1H-inden-2-yl)piperidin-4-yl)hexanoic acid], the half-maximal inhibitory concentration (IC50) in experiment [1] and in experiment [2] was 0.5 to 5 µM throughout. In addition, the “Inh. urea production @10 μM (%)” value in experiment [3] was “++ (25% < % inhibition < 15% at 10 μM test compound)”.
As to `NC(CCCCB(O)O)(C(=O)O)C1CCN(C2Cc3ccccc3C2)CC1` (single isomer, unassigned) [Compound 25, 2-amino-6-borono-2-(1-(2,3-dihydro-1H-inden-2-yl)piperidin-4-yl)hexanoic acid], the 50% inhibitory concentration (IC50) in experiment [1] and in experiment [2] was greater than 5 µM throughout.
In the case of `NC(CCCCB(O)O)(C(=O)O)C1CCN(C2CCc3ccc(C(F)(F)F)cc32)CC1` (single isomer, unassigned) [Compound 35, 2-amino-6-borono-2-[1-[6-(trifluoromethyl)indan-1-yl]-4-piperidyl]hexanoic acid], the concentration for half-maximal inhibition (IC50) in experiment [1] and in experiment [2] was less than 0.5 µM in each case. For the same molecule, the inhibition at 10 µM in experiment [3] is less than 15%.
`NC(CCCCB(O)O)(C(=O)O)C1CCN(C2CCCc3c(Br)cccc32)CC1` (single isomer, unassigned) [Compound 86, 2-amino-6-borono-2-(1-(5-bromo-1,2,3,4-tetrahydronaphthalen-1-yl)piperidin-4-yl)hexanoic acid]: the IC50 in experiment [1] was less than 0.5 µM; in experiment [2], 0.5 to 5 µM. For the same molecule, the “Inh. urea production @10 μM (%)” value in experiment [3] is listed as “++ (25% < % inhibition < 15% at 10 μM test compound)”.
For `NC(CCCCB(O)O)(C(=O)O)C1CCN(C2CCCc3cc(-c4ccccc4)ccc32)CC1` (single isomer, unassigned) [Compound 87, 2-amino-6-borono-2-(1-(6-phenyl-1,2,3,4-tetrahydronaphthalen-1-yl)piperidin-4-yl)hexanoic acid], the IC50 in experiment [1] and in experiment [2] was less than 0.5 µM each time. In addition, the inhibition at 10 µM in experiment [3] is greater than 25%.
On to `NC(CCCCB(O)O)(C(=O)O)C1CCN(C2CCc3ccc(F)cc32)CC1` (single isomer, unassigned) [Compound 88, 2-amino-6-borono-2-(1-(6-fluoro-2,3-dihydro-1H-inden-1-yl)piperidin-4-yl)hexanoic acid], for which the concentration for half-maximal inhibition (IC50) in experiment [1] and in experiment [2] was less than 0.5 µM throughout. The inhibition at 10 µM in experiment [3] was greater than 25%.
As to `CCCC(c1ccccc1)N1CCC(C(N)(CCCCB(O)O)C(=O)O)CC1` (single isomer, unassigned) [Compound 90, 2-amino-6-borono-2-[1-(1-phenylbutyl)-4-piperidyl]hexanoic acid], the IC50 in experiment [1] and in experiment [2] was 0.5 to 5 µM each time.
Turning to `NC(CCCCB(O)O)(C(=O)O)C1CCN(C2Cc3ccccc3C2)CC1` (stereo not shown) [Compound 23, 2-amino-6-borono-2-(1-(2,3-dihydro-1H-inden-2-yl)piperidin-4-yl)hexanoic acid], the IC50 in experiment [1] and in experiment [2] was greater than 5 µM each time.
